Data published in patent EP0155871A1, “Compounds possessing inhibiting properties in the lignin formation in plants and process for the reduction of their lignin content” (Etablissement Public dit: CENTRE NATIONAL DE LA RECHERCHE …, priority 1984, dated 1985).
Like-named read-outs stand apart in the source and are kept apart here. Each block holds one molecule with its values, some of them ahead of it.

Assays:
Format in all cases: biochemical
CAD de peuplier [1] = biological target: T1, CAD de peuplier (Populus deltoides, UniProt P31657); assay: in vitro inhibition of isolated poplar CAD
T1 construct: la CAD de peuplier isolée selon la méthode deSARNI et al; from tissue
T1 sequence (P31657 1-357): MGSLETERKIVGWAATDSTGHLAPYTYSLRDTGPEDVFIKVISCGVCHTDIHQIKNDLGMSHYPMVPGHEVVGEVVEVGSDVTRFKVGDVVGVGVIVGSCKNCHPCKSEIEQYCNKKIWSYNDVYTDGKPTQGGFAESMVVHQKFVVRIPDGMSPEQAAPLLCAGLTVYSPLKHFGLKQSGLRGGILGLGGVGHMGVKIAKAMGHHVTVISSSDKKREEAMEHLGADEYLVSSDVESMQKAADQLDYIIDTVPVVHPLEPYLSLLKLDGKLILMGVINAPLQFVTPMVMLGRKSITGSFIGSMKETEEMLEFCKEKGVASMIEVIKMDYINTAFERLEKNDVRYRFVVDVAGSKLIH
From the text: On rapporte dans le tableau suivant les résultats obtenus concernant l'effet mesuré in vitro d'inhibiteurs selon l'invention à différentes concentrations vis-à-vis de la CAD de peuplier isolée selon la méthode deSARNI et al, dans, EUROP JOURNAL OF BIOCHEMISTRY,139, P.259-265, 1984.
Les mesures des trois derniers résultats ont été réalisées dans le sens physiologique c'est-à-dire en suivant la réduction de l'aldéhyde coniférylique(oxydation du […] mesurée à 340 nm).
Cette inhibition mesurée in vitro dans le sens physiologique (pH 6,5) est 10 à 15 fois plus importante que dans le sens inverse, c'es-t-à-dire alcool→ aldéhyde (pH 8,8).

CAD de peuplier [2] = biological target: T1, CAD de peuplier; assay: in vitro inhibition of isolated poplar CAD; settings: 0,250mM; sens physiologique, réduction de l'aldéhyde coniférylique, 340 nm, pH 6,5; read-out: inhibition à 0,250mM
[3] = system: éthanol déshydrogénase (EDH); assay: action on plant zinc enzyme EDH
From the text: (§1) L'étude de leur action sur différentes enzymes a également été réalisée.
(§2) On a étudié ainsi l'action d'inhibiteurs selon l'invention sur des enzymes du métabolisme phénolique telles que la phénylalanine ammonialyase (PAL), la catéchol O-méthyl transférase (OMT), l'hydroxycinnamate : CoA ligase (HCl) et la cinnamoyl : CoA réductase (CCR), et des enzymes végétales à zinc, telles que l'éthanol déshydrogénase (EDH), la superoxyde dismutase (SOD) et l'anhydrase carbonique (CA).

[4] = system: phénylalanine ammonialyase (PAL); assay: action on phenolic metabolism enzyme PAL
From the text: as §1, §2

CAD = biological target: T2, CAD (Populus deltoides, UniProt P31657); assay: reversibility of CAD inhibition by dialysis of the enzyme-inhibitor mixture; settings: 2 mM; dialysis against tampon tris/HCl 0,1 M, pH 7,5, 14 heures, 4°C
T2 construct: from tissue
T2 sequence (P31657 1-357): T1 sequence (P31657 1-357)
From the text: L'étude des modalités d'action des inhibiteurs de l'invention montre la réversibilité de leur action.

[5] = system: anhydrase carbonique (CA); assay: action on plant zinc enzyme carbonic anhydrase
From the text: as §1, §2

[6] = system: cinnamoyl : CoA réductase (CCR); assay: action on phenolic metabolism enzyme CCR
From the text: as §1, §2

[7] = system: superoxyde dismutase (SOD); assay: action on plant zinc enzyme SOD
From the text: as §1, §2

[8] = 2mM, not among the results measured in the physiological direction, read-out: Inhibition % à 2mM

- inhibition at 2000 µM (CAD de peuplier [1]; [8]): 55%
Structure (SMILES): COc1cc(C=CC(=O)OC(C)(C)C)cc(OC)c1O [STB, Sinapate de tertiobutyle]

- inhibition at 250 µM (CAD de peuplier [2]): 100%
Structure (SMILES): COc1cc(C=CC(=O)N2CCSC2=S)ccc1O [FMT]

- action sur l'EDH [3]: n'agit pas
- action vis à vis de la PAL [4]: actif
- inhibition at 250 µM (CAD de peuplier [2]): 100%
- activité de CAD après dialyse (CAD): restitution totale de l'activité CAD
- inhibition at 2000 µM (CAD de peuplier [1]; [8]): 75%
- inhibition at 2000 µM (CAD de peuplier [1]; text restatement of the table value (2mM), read-out: taux d'inhibition): ~75%
- action sur l'AC [5]: n'agit pas
- action vis à vis de la CCR [6]: actif
- action sur la SOD [7]: n'agit pas
Structure (SMILES): COc1cc(C=CC(=O)OC(C)(C)C)ccc1O [FTB, férulate de tertiobutyle]

- inhibition at 2000 µM (CAD de peuplier [1]; [8]): 40%
Structure (SMILES): CC(C)(C)OC(=O)C=Cc1ccc(O)cc1 [PCB, p-Coumarate de tertiobutyle]
